Laboratory results as given in ChEMBL document CHEMBL5154832, “Design, Synthesis, and Proof-of-Concept of Triple-Site Inhibitors against Aminoacyl-tRNA Synthetases” (J Med Chem, 2022).
In brackets after ≈: the same amount, converted by molar mass.

Experiments:
Pseudomonas aeruginosa = assay: Antibacterial activity against Pseudomonas aeruginosa ATCC27853 strain assessed as inhibition of bacterial growth incubated for 8 hrs by CLSI protocol based microdilution assay; assay type: functional
[1] = molecular target: T1, Threonine--tRNA ligase (Salmonella enterica) (UniProt A0A3F3IEK2); assay: Inhibition of recombinant salmonella enterica threonyl-tRNA synthetase assessed as reduction in enzyme activity at 10 uM incubated for 20 min by Kinase Glo luminescence assay relative to control
T1 sequence (whole entry): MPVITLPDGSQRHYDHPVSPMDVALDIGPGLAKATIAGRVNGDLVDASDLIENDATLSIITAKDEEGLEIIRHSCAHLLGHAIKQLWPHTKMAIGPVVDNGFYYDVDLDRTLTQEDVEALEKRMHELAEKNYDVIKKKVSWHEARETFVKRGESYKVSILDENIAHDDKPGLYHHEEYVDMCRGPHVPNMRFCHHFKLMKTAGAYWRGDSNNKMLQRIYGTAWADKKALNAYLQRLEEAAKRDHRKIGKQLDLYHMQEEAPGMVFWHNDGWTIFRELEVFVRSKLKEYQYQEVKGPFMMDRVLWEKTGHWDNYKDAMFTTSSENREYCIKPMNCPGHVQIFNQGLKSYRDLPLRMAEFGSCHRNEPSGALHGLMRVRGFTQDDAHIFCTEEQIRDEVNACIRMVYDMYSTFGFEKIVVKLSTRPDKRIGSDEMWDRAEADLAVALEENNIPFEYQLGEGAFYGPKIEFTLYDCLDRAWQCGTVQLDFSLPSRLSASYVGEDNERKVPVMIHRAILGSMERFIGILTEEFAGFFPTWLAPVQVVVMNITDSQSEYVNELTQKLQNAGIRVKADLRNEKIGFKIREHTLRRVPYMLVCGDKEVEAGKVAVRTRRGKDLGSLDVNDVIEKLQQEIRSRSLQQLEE

Staphylococcus aureus [2] = assay: Antibacterial activity against Staphylococcus aureus MRSA R3708 strain assessed as inhibition of bacterial growth incubated for 8 hrs by CLSI protocol based microdilution assay; assay type: functional
Salmonella enterica = assay: Antibacterial activity against Salmonella enterica 87 strain assessed as inhibition of bacterial growth incubated for 8 hrs by CLSI protocol based microdilution assay; assay type: functional
[3] = molecular target: T1, Threonine--tRNA ligase (Salmonella enterica); assay: Binding affinity to recombinant salmonella enterica threonyl-tRNA synthetase assessed as change in melting temperature at 0.1 mM by fluorescence-based thermal shift assay
Escherichia coli [4] = assay: Antibacterial activity against Escherichia coli acraB strain assessed as inhibition of bacterial growth incubated for 8 hrs by CLSI protocol based microdilution assay; assay type: functional
Escherichia coli [5] = assay: Antibacterial activity against Escherichia coli ATCC 25922 strain assessed as inhibition of bacterial growth incubated for 8 hrs by CLSI protocol based microdilution assay; assay type: functional
Threonine--tRNA ligase = molecular target: T2, Threonine--tRNA ligase (Salmonella enterica, UniProt A0A3F3IEK2); assay: Inhibition of recombinant salmonella enterica threonyl-tRNA synthetase assessed as reduction in enzyme activity incubated for 20 min by Kinase Glo luminescence assay
T2 sequence (A0A3F3IEK2 whole entry): T1 sequence (whole entry)

Staphylococcus aureus [6] = assay: Antibacterial activity against Staphylococcus aureus ATCC 29213 strain assessed as inhibition of bacterial growth incubated for 8 hrs by CLSI protocol based microdilution assay; assay type: functional
Enterococcus faecalis = assay: Antibacterial activity against Enterococcus faecalis ATCC 29212 strain assessed as inhibition of bacterial growth incubated for 8 hrs by CLSI protocol based microdilution assay; assay type: functional

Structure (SMILES)	MIC (Pseudomonas aeruginosa)	inhibition [1]	MIC (Staphylococcus aureus [2])	MIC (Salmonella enterica)	ΔTm [3]	MIC (Escherichia coli [4])	MIC (Escherichia coli [5])	IC50 (Threonine--tRNA ligase)	MIC (Staphylococcus aureus [6])	MIC (Enterococcus faecalis)
C[C@@H](O)[C@H](N)C(=O)NS(=O)(=O)c1cccc(-c2ccc3[nH]ncc3c2)c1	≥ 128 µg/mL	> 99%	≥ 128 µg/mL	≥ 128 µg/mL	29.9 °C	≥ 128 µg/mL	≥ 128 µg/mL	190 nM	≥ 128 µg/mL	≥ 128 µg/mL
C[C@@H](O)[C@H](N)C(=O)N(CCCOC(=O)Cn1cnc2cc(Br)c(Cl)cc2c1=O)Cc1cccc(-c2ccc3c(c2)CNC3=O)c1	–	–	–	–	0 °C	–	–	–	–	–
CN[C@H](CC(C)C)C(=O)N[C@H]1C(=O)N[C@@H](CC(N)=O)C(=O)N[C@H]2C(=O)N[C@H]3C(=O)N[C@H](C(=O)N[C@H](C(=O)O)c4cc(O)cc(O)c4-c4cc3ccc4O)[C@H](O)c3ccc(c(Cl)c3)Oc3cc2cc(c3O[C@@H]2O[C@H](CO)[C@@H](O)[C@H](O)[C@H]2O[C@H]2C[C@](C)(N)[C@H](O)[C@H](C)O2)Oc2ccc(cc2Cl)[C@H]1O [VANCOMYCIN]	–	–	–	–	–	–	–	–	–	2 µg/mL (≈ 1.38 µM)
C[C@@H](O)[C@H](N)C(=O)N(CCCCCCn1cnc2cc(Br)c(Cl)cc2c1=O)Cc1cccc(-c2ccc3c(c2)CNC3=O)c1	64 µg/mL (≈ 94 µM)	75%	64 µg/mL (≈ 94 µM)	≥ 128 µg/mL	23.5 °C	64 µg/mL (≈ 94 µM)	≥ 128 µg/mL	5680 nM	64 µg/mL (≈ 94 µM)	64 µg/mL (≈ 94 µM)
CN[C@H](C(=O)N[C@H](CNC(=O)CCn1cnc2cc(Cl)c(F)cc2c1=O)c1cccc(-c2ccccc2)c1)[C@@H](C)O	–	5%	–	–	7.2 °C	–	–	–	–	–
C[C@@H](O)[C@H](N)C(=O)N[C@@H](CNC(=O)CCn1cnc2cc(Br)c(Cl)cc2c1=O)c1cccc(-c2ccc3c(c2)CNC3=O)c1	≥ 128 µg/mL	> 99%	≥ 128 µg/mL	≥ 128 µg/mL	32.8 °C	≥ 128 µg/mL	≥ 128 µg/mL	103 nM	≥ 128 µg/mL	≥ 128 µg/mL
C[C@@H](O)[C@@H](N)C(=O)N(CCCCCn1cnc2cc(Br)c(Cl)cc2c1=O)S(=O)(=O)c1cccc(-c2ccc3c(c2)CNC3=O)c1	–	16%	–	–	6.2 °C	–	–	–	–	–

More lines, in order of falling MIC (Pseudomonas aeruginosa), values ahead:

MIC (Pseudomonas aeruginosa)	inhibition [1]	MIC (Staphylococcus aureus [2])	MIC (Salmonella enterica)	ΔTm [3]	MIC (Escherichia coli [4])	MIC (Escherichia coli [5])	IC50 (Threonine--tRNA ligase)	MIC (Staphylococcus aureus [6])	MIC (Enterococcus faecalis)	Structure (SMILES)
64 µg/mL (≈ 92 µM)	80%	≥ 128 µg/mL	≥ 128 µg/mL	25.4 °C	64 µg/mL (≈ 92 µM)	≥ 128 µg/mL	5070 nM	≥ 128 µg/mL	64 µg/mL (≈ 92 µM)	C[C@@H](O)[C@H](N)C(=O)N(CCC(=O)NCCn1cnc2cc(Br)c(Cl)cc2c1=O)Cc1cccc(-c2ccc3c(c2)CNC3=O)c1
16 µg/mL (≈ 27.6 µM)	73%	32 µg/mL (≈ 55.2 µM)	≥ 128 µg/mL	22.1 °C	16 µg/mL (≈ 27.6 µM)	≥ 128 µg/mL	2100 nM	32 µg/mL (≈ 55.2 µM)	32 µg/mL (≈ 55.2 µM)	CN[C@H](C(=O)N[C@@H](CNC(=O)CCn1cnc2cc(Cl)c(F)cc2c1=O)c1cccc(-c2ccccc2)c1)[C@@H](C)O
16 µg/mL (≈ 28.3 µM)	> 99%	32 µg/mL (≈ 56.5 µM)	≥ 128 µg/mL	22.6 °C	32 µg/mL (≈ 56.5 µM)	≥ 128 µg/mL	550 nM	16 µg/mL (≈ 28.3 µM)	32 µg/mL (≈ 56.5 µM)	C[C@@H](O)[C@H](N)C(=O)N[C@@H](CNC(=O)CCn1cnc2cc(Cl)c(F)cc2c1=O)c1cccc(-c2ccccc2)c1
16 µg/mL (≈ 25.5 µM)	82%	32 µg/mL (≈ 51 µM)	≥ 128 µg/mL	20.1 °C	32 µg/mL (≈ 51 µM)	≥ 128 µg/mL	3710 nM	32 µg/mL (≈ 51 µM)	32 µg/mL (≈ 51 µM)	C[C@@H](O)[C@H](N)C(=O)N[C@@H](CNC(=O)CCn1cnc2cc(Br)c(Cl)cc2c1=O)c1cccc(-c2ccccc2)c1
4 µg/mL (≈ 6.48 µM)	75%	4 µg/mL (≈ 6.48 µM)	≥ 128 µg/mL	20.1 °C	8 µg/mL (≈ 13 µM)	≥ 128 µg/mL	3290 nM	4 µg/mL (≈ 6.48 µM)	4 µg/mL (≈ 6.48 µM)	C[C@@H](O)[C@H](N)C(=O)N[C@@H](CNC(=O)CCn1cnc2cc(Cl)c(Cl)cc2c1=O)c1cccc(-c2ccc(Cl)cc2)c1
4 µg/mL (≈ 5.91 µM)	85%	4 µg/mL (≈ 5.91 µM)	≥ 128 µg/mL	20.2 °C	8 µg/mL (≈ 11.8 µM)	≥ 128 µg/mL	2100 nM	4 µg/mL (≈ 5.91 µM)	4 µg/mL (≈ 5.91 µM)	C[C@@H](O)[C@H](N)C(=O)N[C@@H](CNC(=O)CCn1cnc2cc(Br)c(Cl)cc2c1=O)c1cccc(-c2ccc3ccccc3c2)c1
4 µg/mL (≈ 6.15 µM)	> 99%	4 µg/mL (≈ 6.15 µM)	≥ 128 µg/mL	25.9 °C	8 µg/mL (≈ 12.3 µM)	≥ 128 µg/mL	580 nM	2 µg/mL (≈ 3.07 µM)	4 µg/mL (≈ 6.15 µM)	C[C@@H](O)[C@H](N)C(=O)N[C@@H](CNC(=O)CCn1cnc2cc(Cl)c(Cl)cc2c1=O)c1cccc(-c2ccc(C(F)(F)F)cc2)c1
